Experiments:
[1] = system: A673 Ewing's sarcoma cells; experiment: Soft agar colony formation in the presence of histone deacetylase inhibitor; assay type: cell-based; conditions: 1.5 uM, versus ethanol carrier, FIG. 6
Description: Cell Culture: Ewing's sarcoma cell lines were grown as described (Lessnick et al., 2002). Following retroviral infection, polyclonal cell populations were prepared by growth in the appropriate selective media. Soft agar assays were performed as described (Lessnick et al., 2002). Tet-A673 cells were generated by infection with pREV-TETOFF (Clontech) and selection with G418. A single clone was then infected with FLAG-EWS/FLI-pREV-TRE, and selected with hygromycin in the presence of 1 ug/ml doxycycline and G418 (Lessnick et al., 2002). Individual clones were tested for induction of FLAG-EWS/FLI as previously described (Lessnick et al., 2002).
To test the effect of a histone deacetylase inhibitor on NKX2.2 activity, A673 Ewing's sarcoma cells were seeded into soft agar in the presence of 1.5 uM tricostatin (TSA), or ethanol (the TSA carrier) (FIG. 6). […] Soft agar colony formation is one measure of oncogenic transformation. Thus, the histone deacetylase inhibitor TSA blocks oncogenic transformation of Ewing's sarcoma cells.

casein kinase II (CKII) = casein kinase II (CKII) (Homo sapiens, UniProt P68400); conditions: 5 μg/ml; cited from earlier work
Chain of casein kinase II (CKII) (P68400 whole entry): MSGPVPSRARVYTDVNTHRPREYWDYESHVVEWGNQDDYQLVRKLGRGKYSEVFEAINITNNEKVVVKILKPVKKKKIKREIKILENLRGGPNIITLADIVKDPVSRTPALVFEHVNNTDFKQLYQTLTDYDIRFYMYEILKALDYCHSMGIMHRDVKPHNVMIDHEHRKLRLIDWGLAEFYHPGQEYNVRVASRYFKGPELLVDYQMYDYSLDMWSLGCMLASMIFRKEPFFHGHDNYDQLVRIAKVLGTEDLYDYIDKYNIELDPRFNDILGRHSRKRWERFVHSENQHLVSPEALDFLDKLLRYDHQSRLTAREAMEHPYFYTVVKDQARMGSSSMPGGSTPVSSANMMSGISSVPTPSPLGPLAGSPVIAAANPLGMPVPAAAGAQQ

Molecule | soft agar colony formation (oncogenic transformation) [1] | inhibition of the protein kinase activity of CKII (casein kinase II (CKII))
CC(/C=C/C(=O)NO)=C\[C@@H](C)C(=O)c1ccc(N(C)C)cc1 [TSA, Trichostatin A] | prevents Ewing's cells from forming colonies in soft agar | 
heparin |  | > 90%

Reference: patent US7939253B2, “Methods and compositions for the diagnosis and treatment of ewing's sarcoma” (The University of Utah Research Foundation, priority 2007, dated 2011)
